This is an account of results in PubChem BioAssay (NCI).

Some test systems named below: MDA-MB-435; OVCAR-3 ovarian; HOP-62 NSCLC; UACC-62 melanoma; BT-549 breast; HT29 colon; IGROV1 ovarian; NCI-H23 lung; HCC-2998 colon; HCT-15 colon.
What all share (assay): NCI-60 cell line screen, 48 h

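Growth conditions: 96-well plates. Treatment: test compound, 48 hours, 5 concentrations. Analysis: linear interpolation between bracketing concentrations; unreached endpoints set to highest concentration. Abbreviation: GI50, concentration required for 50% inhibition of growth. TGI is the concentration that stops growth completely.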

Consider `N#CC1=C(N)Oc2c(ccc3ccccc23)C1c1cc2ccccc2n2nnnc12` (centres undefined), for which the GI50 in the experiment on MDA-MB-435 was 300 nM; in the experiment with OVCAR-3 ovarian it was 440 nM; in the experiment with HOP-62 NSCLC, 812 nM; in the experiment with UACC-62 melanoma it was 451 nM; in the experiment with BT-549 breast it was 1610 nM; in the experiment with HT29 colon, 3000 nM. For the same compound, the GI50 in the experiment on IGROV1 ovarian is 820 nM; with NCI-H23 lung, 3450 nM; with HCC-2998 colon, 2360 nM; in the experiment with HCT-15 colon, 524 nM. For the same compound, the TGI with MDA-MB-435 was 1.01 µM; in the experiment on OVCAR-3 ovarian, 3.36 µM; in the experiment with HOP-62 NSCLC it was more than 100 µM; in the experiment with UACC-62 melanoma, more than 100 µM; in the experiment with BT-549 breast it was more than 100 µM; in the experiment on HT29 colon, more than 100 µM. For the same compound, the TGI with IGROV1 ovarian, in the experiment with NCI-H23 lung, in the experiment with HCC-2998 colon and with HCT-15 colon was more than 100 µM throughout.
In the case of `COc1ccc([C@@H]2[C@@H](Oc3ccccc3)C(=O)N2c2cc(OC)c(OC)c(OC)c2)cc1F`, the GI50 in the experiment on MDA-MB-435 is 26.4 nM; with OVCAR-3 ovarian, 51.1 nM; in the experiment on HOP-62 NSCLC, 81.1 nM; in the experiment on UACC-62 melanoma, 41.9 nM; in the experiment with BT-549 breast, 34.2 nM; in the experiment with HT29 colon, 211 nM. Further, the GI50 in the experiment with IGROV1 ovarian was 257 nM; in the experiment with NCI-H23 lung, 700 nM; with HCC-2998 colon, 524 nM; in the experiment with HCT-15 colon, 155 nM. Also, the TGI in the experiment on MDA-MB-435 is 0.076 µM; with OVCAR-3 ovarian, more than 100 µM; in the experiment on HOP-62 NSCLC, more than 100 µM; in the experiment on UACC-62 melanoma, more than 100 µM; with BT-549 breast, more than 100 µM; with HT29 colon, 0.684 µM. Further, the TGI in the experiment on IGROV1 ovarian, with NCI-H23 lung, in the experiment with HCC-2998 colon and in the experiment with HCT-15 colon was more than 100 µM throughout.
For the compound `c1cc(OCCCCCOc2cccc(-c3nc4ccccc4[nH]3)c2)cc(-c2nc3ccccc3[nH]2)c1`, the GI50 was 2260 nM with MDA-MB-435; 1530 nM with OVCAR-3 ovarian; 3580 nM in the experiment with HOP-62 NSCLC; 2830 nM with UACC-62 melanoma; 1720 nM in the experiment with BT-549 breast; 2870 nM in the experiment on HT29 colon. The GI50 in the experiment on IGROV1 ovarian is 324 nM; in the experiment on HCC-2998 colon it was 3320 nM; in the experiment on HCT-15 colon it was 2710 nM. The TGI is 6.74 µM in the experiment on MDA-MB-435; more than 100 µM in the experiment with OVCAR-3 ovarian; more than 100 µM in the experiment on HOP-62 NSCLC; more than 100 µM with UACC-62 melanoma; 5 µM in the experiment with BT-549 breast; more than 100 µM in the experiment on HT29 colon. For the same compound, the TGI in the experiment on IGROV1 ovarian is more than 100 µM; in the experiment with HCC-2998 colon, 28 µM; in the experiment with HCT-15 colon, more than 100 µM.
For `C#CCCCCCC(=O)N[C@H]1C=C[C@@H]2/C=C(C)/C=C/[C@@H](C)[C@H]([C@H](C)[C@H](O)[C@@H](C)NC(C)=O)OC(=O)/C=C/C=C(C)\C=C\[C@]2(C)C1`, the GI50 was 8.89 nM with OVCAR-3 ovarian; 10.7 nM with HOP-62 NSCLC; 23 nM with UACC-62 melanoma; less than 4 nM in the experiment on BT-549 breast; less than 4 nM with HT29 colon; 6.81 nM in the experiment with IGROV1 ovarian. Besides, the GI50 was 94.2 nM with NCI-H23 lung, 6160 nM in the experiment with HCC-2998 colon and 8.04 nM with HCT-15 colon. The TGI is more than 40 µM in the experiment with OVCAR-3 ovarian; more than 40 µM in the experiment on HOP-62 NSCLC; 9.04 µM with UACC-62 melanoma; more than 40 µM in the experiment with BT-549 breast; 25.1 µM in the experiment on HT29 colon; more than 40 µM in the experiment with IGROV1 ovarian. Also, the TGI with NCI-H23 lung, in the experiment with HCC-2998 colon and with HCT-15 colon was more than 40 µM each time.
As to `C/C(=C\c1csc(C)n1)[C@@H]1C[C@@H]2O[C@]2(C)CCC[C@H](C)[C@H](O)[C@@H](C)C(=O)C(C)(C)[C@@H](O)CC(=O)N1`, the GI50 in the experiment on MDA-MB-435 is 0.0655 nM; in the experiment on OVCAR-3 ovarian it was 0.158 nM; in the experiment on HOP-62 NSCLC it was 0.352 nM; in the experiment on UACC-62 melanoma, 0.171 nM; in the experiment on BT-549 breast it was 0.187 nM; with HT29 colon it was 0.0823 nM. Also, the GI50 in the experiment on NCI-H23 lung is 0.19 nM; with HCC-2998 colon, 0.121 nM; with HCT-15 colon, 0.152 nM. The TGI with MDA-MB-435 turned out to be 0.000143 µM; with OVCAR-3 ovarian, 0.000377 µM; with HOP-62 NSCLC, 0.000508 µM; with UACC-62 melanoma, 0.000412 µM; in the experiment on BT-549 breast, 0.000416 µM; with HT29 colon, 0.000537 µM. The TGI with NCI-H23 lung was determined as 0.000412 µM; in the experiment on HCC-2998 colon, 0.000243 µM; in the experiment on HCT-15 colon, 0.000344 µM.
On to `CC(=O)O[C@H]1C[C@@H]2[C@@]3(C)CC[C@H]4C[C@@]4(C)[C@@H]3CC[C@@]2(C)C2=CCC3=C(COC3=O)[C@]21C`, for which the GI50 with MDA-MB-435 was 22600 nM; in the experiment with OVCAR-3 ovarian it was 10100 nM; in the experiment with HOP-62 NSCLC, 17500 nM; in the experiment with UACC-62 melanoma, 16600 nM; in the experiment with HT29 colon, 31600 nM; in the experiment on IGROV1 ovarian, 26500 nM. In addition, the GI50 is 20100 nM in the experiment on NCI-H23 lung, 23700 nM with HCC-2998 colon and 21000 nM in the experiment on HCT-15 colon. For the same compound, the TGI in the experiment with MDA-MB-435 was 46.9 µM; in the experiment on OVCAR-3 ovarian, 25.7 µM; in the experiment on HOP-62 NSCLC, 36.4 µM; with UACC-62 melanoma, 36.4 µM; with HT29 colon it was more than 100 µM; in the experiment on IGROV1 ovarian it was 78 µM. In addition, the results for the TGI in the experiment with NCI-H23 lung, with HCC-2998 colon and with HCT-15 colon were 49.9 µM, 51.4 µM and 56.1 µM, respectively.
As for `O=C1c2ccccc2N1C(=O)c1ccccc1[N+](=O)[O-]`, the TGI with MDA-MB-435 was more than 100 µM; with OVCAR-3 ovarian, 88.4 µM; in the experiment with HOP-62 NSCLC, more than 100 µM; in the experiment with UACC-62 melanoma, more than 100 µM; in the experiment with HT29 colon, more than 100 µM; with IGROV1 ovarian, more than 100 µM. Moreover, the TGI in the experiment with NCI-H23 lung, in the experiment on HCC-2998 colon and with HCT-15 colon was more than 100 µM throughout.
`COc1cc2c(cc1OCCN1CCN(CCN3C(=O)c4cccc5cccc(c45)C3=O)CC1)N=C[C@@H]1CCCN1C2=O`: the GI50 with MDA-MB-435 is 23400 nM; in the experiment on OVCAR-3 ovarian it was 15800 nM; in the experiment with HOP-62 NSCLC, 19700 nM; in the experiment with UACC-62 melanoma it was 18200 nM; in the experiment with BT-549 breast it was 19000 nM; in the experiment on HT29 colon, 22600 nM. In addition, the GI50 was 19200 nM with IGROV1 ovarian, 13000 nM in the experiment with NCI-H23 lung and 15800 nM in the experiment on HCT-15 colon. In addition, the TGI came out at 48.7 µM in the experiment on MDA-MB-435; 33.5 µM with OVCAR-3 ovarian; 34.9 µM with HOP-62 NSCLC; 35 µM with UACC-62 melanoma; 34.9 µM in the experiment with BT-549 breast; 43.9 µM with HT29 colon. Moreover, the TGI in the experiment on IGROV1 ovarian is 36.9 µM; with NCI-H23 lung it was 25.6 µM; in the experiment on HCT-15 colon, 31.1 µM.
